The values below come from ChEMBL document CHEMBL1129875, “SYNTHESIS AND ANTISTAPHYLOCOCCAL ACTIVITY OF NEMATOPHIN AND ITS ANALOGS” (1997).

≈ marks a conversion by molar mass, not a printed value.

This experiment relates to Staphylococcus aureus. Description: Minimum inhibitory concentration required to inhibit Staphylococcus aureus ATCC 29213 cell growth. Type of experiment: functional.

As for `CC(C)C(=O)C(=O)NCCc1c[nH]c2ccccc12`, the MIC (usually the least concentration at which growth counts as inhibited) is 3 µg/mL (≈ 11.6 µM). In the case of `CC(C)CC(=O)C(=O)NCCc1c[nH]c2ccccc12`, the MIC was 0.7 µg/mL (≈ 2.57 µM). This MIC lies about 4.3-fold lower than the previous one. The compound `CCC(=O)C(=O)NCCc1c[nH]c2ccccc12` gave an MIC of 100 µg/mL (≈ 409 µM). The same measure for `CCC(C)C(=O)C(=O)NCCc1c[nH]c2ccccc12` (stereo unspecified): 0.7 µg/mL (≈ 2.57 µM); for `CCC(C)C(=O)C(=O)OCCc1c[nH]c2ccccc12` (stereo unspecified): 25 µg/mL (≈ 91.5 µM); for `CC(=O)C(=O)NCCc1c[nH]c2ccccc12`: 100 µg/mL (≈ 434 µM). With `CCC(C)C(=O)C(=O)NCCc1c[nH]c2ccc(C)cc12` (stereo unspecified), the minimal inhibitory concentration (MIC) came to 3 µg/mL (≈ 10.5 µM). Then `CCC(C)C(O)C(=O)NCCc1c[nH]c2ccccc12` (stereo unspecified), with over 100 µg/mL; and `CCC(C)/C(=N\OC)C(=O)NCCc1c[nH]c2ccccc12` (stereo unspecified), with over 100 µg/mL; and `CCC(C)C(=O)C(=O)NCCc1c[nH]c2cc(F)ccc12` (stereo unspecified), with 0.7 µg/mL (≈ 2.41 µM).

For `CCC(C)C(=O)C(=O)NCCc1c[nH]c2ccc(OC)cc12` (stereo unspecified), the MIC was 3 µg/mL (≈ 9.92 µM).
